Like-named read-outs stand apart in the source and are kept apart here.
Tested on: phenyl-p-benzoquinone induced writhing in mice
Assay type: in vivo, mice (male CF1)
Conditions: oral, N=43 mice/dose; for % MICE BLOCKED: 5 min

SMILES	% MICE BLOCKED (ibuprofen 2.25 mg/kg) [%]	% MICE BLOCKED (ibuprofen 4.49 mg/kg) [%]	% MICE BLOCKED (ibuprofen 8.98 mg/kg) [%]	% MICE BLOCKED (ibuprofen 17.96 mg/kg) [%]	ED50 AT 5 MIN, Ibuprofen (95% Confidence Limits) (ibuprofen part of the ED50 dose (alone or at fixed ratio oxycodone:ibuprofen)) [mg/kg]	% MICE BLOCKED (oxycodone HCl 0.36 mg/kg) [%]	% MICE BLOCKED (oxycodone HCl 0.72 mg/kg) [%]	% MICE BLOCKED (oxycodone HCl 1.44 mg/kg) [%]	% MICE BLOCKED (oxycodone HCl 2.88 mg/kg) [%]	% MICE BLOCKED (oxycodone HCl 5.76 mg/kg) [%]	ED50 AT 5 MIN, Oxycodone (95% Confidence Limits) (oxycodone HCl part of the ED50 dose (alone or at fixed ratio oxycodone:ibuprofen)) [mg/kg]
CC(C)Cc1ccc(C(C)C(=O)O)cc1 (stereo not drawn) [Ibuprofen, α-methyl-4-(2-methylpropyl)benzeneacetic acid]	7.0	11.6	20.1	62.8	15.8						
COc1ccc2c3c1O[C@H]1C(=O)CC[C@@]4(O)[C@@H](C2)N(C)CC[C@]314 [Oxycodone]						11.6	4.7	39.5	81.4	95.3	1.88

— patent US4569937A, “Analgesic mixture of oxycodone and ibuprofen” (priority 1985, dated 1986)
